Source: patent US6355428B1, “Nucleic acid ligand interaction assays” (Genelabs Technologies, Inc., priority 1998, dated 2002)

Key:
[1] = tested on: GCGGTATTT (mixed) DNA duplex (SEQ ID NO: 12); assay: SPA direct binding assay, mixed sequence indicator duplex
Excerpt: (§1) This technology can be applied to studies of ligand binding as disclosed herein. Example 13, below, describes the use of the assay in a high throughput screening method, using the SPA detection system. In this example, the first oligonucleotide is labeled with biotin, and is then tightly bound to streptavidin-coated SPA beads via the strong biotin/streptavidin interaction. These beads are impregnated with scintillant. The second oligonucleotide is labeled with a weak β-emitter, such as ^3H or ^33P. The radioactive second oligonucleotide is mixed with a solution of the beads under conditions at which the first and second oligonucleotides exist primarily as single strands, as described above. The signal will thus be low, as the oligonucleotides are non-hybridized. When ligand is added, the duplex form is stabilized, and the increased proximity of the radioactive isotope (e.g., ^3H, ^33P) in the second oligonucleotide causes the bead to which the first oligonucleotide is bound to scintillate. A signal thus indicates the presence of an effective binding ligand molecule; test sequences giving higher signals indicate the relative preference for different sequences.
(§2) The data in Table II compare raw signal counts from SPA assays using three different oligonucleotides and three concentrations (0, 100, and 500 nM) of the DNA binding drug distamycin. The oligonucleotides used were G/C-rich (CCGCGCC; SEQ ID NO: 6), A/T-rich (CTTTATTATTTT; SEQ ID NO: 2), or mixed sequence (GCGGTATTT; SEQ ID NO: 12) DNA duplexes. One strand of the duplex was synthesized with a 5′-biotin label, the other strand was labeled with ^33P, as described in Example 13.
Indicator oligonucleotides as shown in Table 1 were used in this assay, as shown in Table II and FIGS. 4A-E. One strand of each duplex was labeled with biotin at the 5′-end, and the complementary strand was 3′-labeled with ^33P. […] In the absence of ligand, and under these conditions, the oligonucleotides exist in single-stranded conformation. As a result, the oligonucleotide containing the radioactive label is not in close proximity to the SPA bead, and the light given off by the beads is low, i.e., at background. As a duplex-stabilizing ligand is added, the radioactive ^33P is brought into close proximity to the SPA bead, and the light emitted from the SPA bead increases. Accordingly, each of five known DNA-binding compounds was added in increasing concentrations, and the effect on scintillation count was observed, giving the results shown in FIGS. 4A-E.

[2] = tested on: CTTTATTATTTT (AT-rich) DNA duplex (SEQ ID NO: 2); assay: SPA direct binding assay, A/T-rich indicator duplex
Excerpt: as §1, §2
Indicator oligonucleotides as shown in Table 1 were used in this assay, as shown in Table II and FIGS. 4A-E. One strand of each duplex was labeled with biotin at the 5′-end, and the complementary strand was 3′-labeled with ^33P. The two complementary strands were incubated with streptavidin-coated SPA beads (Amersham, Arlington Heights, Ill.) at room temperature in a buffer containing 20 mM HEPES, pH 7.5, 0.1 mM EDTA, and 20 mM NaCl. In the absence of ligand, and under these conditions, the oligonucleotides exist in single-stranded conformation. As a result, the oligonucleotide containing the radioactive label is not in close proximity to the SPA bead, and the light given off by the beads is low, i.e., at background. As a duplex-stabilizing ligand is added, the radioactive ^33P is brought into close proximity to the SPA bead, and the light emitted from the SPA bead increases. Accordingly, each of five known DNA-binding compounds was added in increasing concentrations, and the effect on scintillation count was observed, giving the results shown in FIGS. 4A-E.

## Cn1cc(NC(=O)c2cc(NC(=O)c3cc(NC=O)cn3C)cn2C)cc1C(=O)NCCC(=N)N [Distamycin, distamycin]
[1]; 100 nM Distamycin, 10 mM Na+
  CPM: 597 CPM
[1]; 100 nM Distamycin, 50 mM Na+
  CPM: 868 CPM
[1]; 500 nM Distamycin, 10 mM Na+
  CPM: 1951 CPM
[1]; 500 nM Distamycin, 50 mM Na+
  CPM: 2234 CPM
[2]; 100 nM Distamycin, 10 mM Na+
  CPM: 2218 CPM
[2]; 100 nM Distamycin, 50 mM Na+
  CPM: 2448 CPM
[2]; 500 nM Distamycin, 10 mM Na+
  CPM: 3332 CPM
[2]; 500 nM Distamycin, 50 mM Na+
  CPM: 3352 CPM
